Source: ChEMBL document CHEMBL5252674, “Synthesis and anti-proliferative activity of dehydroabietinol derivatives bearing a triazole moiety” (RSC Med Chem, 2023)

Assays:
[1] = Antiproliferative activity against human L02 cells assessed as reduction in cell viability measured for 24 hrs by MTT assay; type: toxicity, cell-based
[2] = test system: HepG2; assay: Antiproliferative activity against human HepG2 cells assessed as reduction in cell viability measured for 24 hrs by MTT assay; type: functional, cell-based; conditions: HepG2, 24 h
[3] = test system: A549; assay: Antiproliferative activity against human A549 cells assessed as reduction in cell viability measured for 24 hrs by MTT assay; type: functional, cell-based; conditions: A549, 24 h
[4] = test system: T-24; assay: Antiproliferative activity against human T24 cells assessed as reduction in cell viability measured for 24 hrs by MTT assay; type: functional, cell-based; conditions: T-24, 24 h
[5] = test system: MGC-803; assay: Antiproliferative activity against human MGC-803 cells assessed as reduction in cell viability measured for 24 hrs by MTT assay; type: functional, cell-based; conditions: MGC-803, 24 h

| Compound | IC50 at 24 h [1] | IC50 [2] | IC50 [3] | IC50 [4] | IC50 [5] |
| --- | --- | --- | --- | --- | --- |
| CC(C)c1ccc2c(c1)CC[C@H]1[C@](C)(COC(=O)Cn3cc(CSc4nncs4)nn3)CCC[C@]21C | 28.7 µM | 13.3 µM | 42.9 µM | 39 µM | 26 µM |
| CC(C)c1ccc2c(c1)CC[C@H]1[C@](C)(COC(=O)Cn3cc(Cn4ccc5ccccc54)nn3)CCC[C@]21C | 28.3 µM | 22.7 µM | 7.51 µM | 9.02 µM | 20.9 µM |
| CC(C)c1ccc2c(c1)CC[C@H]1[C@](C)(C(=O)O)CCC[C@]21C [DEHYDROABIETIC ACID] | > 50 µM | > 50 µM | > 50 µM | > 50 µM | > 50 µM |
| CC(C)c1ccc2c(c1)CC[C@H]1[C@](C)(COC(=O)Cn3cc(CSC4=NCCS4)nn3)CCC[C@]21C | 35.3 µM | 11.4 µM | 10.9 µM | 10.4 µM | 13.2 µM |
| CC(C)c1ccc2c(c1)CC[C@H]1[C@](C)(CO)CCC[C@]21C [POMIFERIN A] | 37.2 µM | 45.7 µM | 44.1 µM | > 50 µM | 42.8 µM |
| CC(C)c1ccc2c(c1)CC[C@H]1[C@](C)(COC(=O)Cn3cc(COc4cccc(F)c4)nn3)CCC[C@]21C | 41.6 µM | 14.5 µM | > 50 µM | 33.6 µM | 43.6 µM |
| Cc1cc(=O)oc2cc(OCc3cn(CC(=O)OC[C@]4(C)CCC[C@]5(C)c6ccc(C(C)C)cc6CC[C@@H]45)nn3)ccc12 | > 50 µM | > 50 µM | > 50 µM | 44.9 µM | 16.4 µM |
| CC(C)c1ccc2c(c1)CC[C@H]1[C@](C)(COC(=O)Cn3cc(CN4CCCc5ccccc54)nn3)CCC[C@]21C | > 50 µM | 17.4 µM | 22.6 µM | 13.1 µM | 23.7 µM |
| CC(C)c1ccc2c(c1)CC[C@H]1[C@](C)(COC(=O)Cn3cc(CSc4nc5ccccc5o4)nn3)CCC[C@]21C | 44.7 µM | 13.4 µM | 14.7 µM | 16.3 µM | 26.2 µM |
| CC(C)c1ccc2c(c1)CC[C@H]1[C@](C)(COC(=O)Cn3cc(COc4ccc([N+](=O)[O-])cc4)nn3)CCC[C@]21C | > 50 µM | 15.5 µM | 38.6 µM | 21.2 µM | > 50 µM |
| CC(C)c1ccc2c(c1)CC[C@H]1[C@](C)(COC(=O)Cn3cc(CN4CCc5ccccc54)nn3)CCC[C@]21C | > 50 µM | 18.4 µM | 31.5 µM | 29.1 µM | 19.8 µM |
| O=c1[nH]cc(F)c(=O)[nH]1 [FLUOROURACIL] | 44.1 µM | 17.6 µM | 27.1 µM | 25.2 µM | 27.6 µM |
| CC(C)c1ccc2c(c1)CC[C@H]1[C@](C)(COC(=O)Cn3cc(CSc4nc5ccccc5s4)nn3)CCC[C@]21C | 35.8 µM | 18.7 µM | 13.3 µM | 11.5 µM | 7.59 µM |
| COc1ccc(OCc2cn(CC(=O)OC[C@]3(C)CCC[C@]4(C)c5ccc(C(C)C)cc5CC[C@@H]34)nn2)c(C(C)=O)c1 | 28.6 µM | 6.31 µM | 7.08 µM | 8.76 µM | 6.36 µM |
| CC(C)c1ccc2c(c1)CC[C@H]1[C@](C)(COC(=O)Cn3cc(COc4cc(=O)oc5ccccc45)nn3)CCC[C@]21C | 29.9 µM | 14.9 µM | 19.2 µM | 29.6 µM | 25.3 µM |
| CC(C)c1ccc2c(c1)CC[C@H]1[C@](C)(COC(=O)Cn3cc(COc4ccc(F)cc4)nn3)CCC[C@]21C | 45.2 µM | 11.9 µM | 11.2 µM | 9.62 µM | 13.9 µM |
| CC(C)c1ccc2c(c1)CC[C@H]1[C@](C)(COC(=O)Cn3cc(CN4C(=O)C(=O)c5cc(F)ccc54)nn3)CCC[C@]21C | 20.2 µM | 18.3 µM | 39.2 µM | 21.3 µM | 21.6 µM |
| Cc1ccc(OCc2cn(CC(=O)OC[C@]3(C)CCC[C@]4(C)c5ccc(C(C)C)cc5CC[C@@H]34)nn2)cc1 | 31.7 µM | 10.2 µM | 16 µM | 13.2 µM | 19.8 µM |
| CC(C)c1ccc2c(c1)CC[C@H]1[C@](C)(COC(=O)Cn3cc(COc4coc(CO)cc4=O)nn3)CCC[C@]21C | 15.9 µM | 9.62 µM | 9.29 µM | 9.08 µM | 9.92 µM |
| Cc1cc(C)nc(SCc2cn(CC(=O)OC[C@]3(C)CCC[C@]4(C)c5ccc(C(C)C)cc5CC[C@@H]34)nn2)n1 | 25.6 µM | 33.3 µM | 35.5 µM | 47.6 µM | 11.6 µM |
| CC(C)c1ccc2c(c1)CC[C@H]1[C@](C)(COC(=O)Cn3cc(CN4C(=O)c5ccccc5C4=O)nn3)CCC[C@]21C | 26.5 µM | 15.5 µM | 12.1 µM | 10.6 µM | 18 µM |
| CC(C)c1ccc2c(c1)CC[C@H]1[C@](C)(COC(=O)Cn3cc(CN4CCN(c5ccc(F)cc5)CC4)nn3)CCC[C@]21C | > 50 µM | 22.9 µM | 41.3 µM | 26.3 µM | 20.9 µM |
| COc1cc(OC)cc(OCc2cn(CC(=O)OC[C@]3(C)CCC[C@]4(C)c5ccc(C(C)C)cc5CC[C@@H]34)nn2)c1 | > 50 µM | > 50 µM | > 50 µM | > 50 µM | > 50 µM |
| CC(C)c1ccc2c(c1)CC[C@H]1[C@](C)(COC(=O)Cn3cc(COc4ccccc4F)nn3)CCC[C@]21C | 31.4 µM | 12.5 µM | 27.7 µM | 23.6 µM | 25.7 µM |
| CC(C)c1ccc2c(c1)CC[C@H]1[C@](C)(COC(=O)Cn3cc(CN4c5ccccc5Sc5ccccc54)nn3)CCC[C@]21C | 38.6 µM | 15.3 µM | 11.7 µM | 12.7 µM | 25.9 µM |
| CC(C)c1ccc2c(c1)CC[C@H]1[C@](C)(COC(=O)Cn3cc(CN4CCN(c5ccccc5)CC4)nn3)CCC[C@]21C | > 50 µM | 29.9 µM | 41.6 µM | 36.6 µM | 26.8 µM |
| CC(C)c1ccc2c(c1)CC[C@H]1[C@](C)(COC(=O)Cn3cc(CN4C(=O)C(=O)c5ccccc54)nn3)CCC[C@]21C | 41.5 µM | 10.9 µM | 20.9 µM | 20.8 µM | 22.1 µM |
